US6172085A (priority 1996, dated 2001)
Where a name gives a salt, the structure may show the parent alone.

tested on: sodium channel; format: binding, Wistar rats; details: rat cerebral cortex membrane, 5 nM [^3 H]batracotoxinin A20-α-benzoate, 1 μM tetrodotoxin, 100 μg/mL scorpion toxin, 37° C., 1 hour

**Q.** For `Cc1c(C)c2c(c(C)c1N)CC(C)(CN1CCC(CCc3ccccc3)CC1)O2` (centres unmarked) [Example 1, 2,3-Dihydro-2,4,6,7-tetramethyl-2-[[4-(2-phenylethyl)-1-piperidinyl]methyl]-5-benzofuranamine], which IC50 is on record?
**A.** The IC50 was 220 nM.

**Q.** With `Cc1c(C)c2c(c(C)c1N)CC(C)(CN1CCC(CCCc3ccccc3)CC1)O2` (centres unmarked) [Example 2, 2,3-Dihydro-2,4,6,7-tetramethyl-2-[[4-(3-phenylpropyl)-1-piperidinyl]methyl]-5-benzofuranamine] as the molecule, how does the IC50 read?
**A.** The IC50 was 280 nM.

**Q.** Which IC50 does the source give for `Cc1c(C)c2c(c(C)c1N)CC(C)(CN1CCC(CCCCc3ccccc3)CC1)O2` (centres unmarked) [Example 3, 2,3-Dihydro-2,4,6,7-tetramethyl-2-[[4-(4-phenylbutyl)-1-piperidinyl]methyl]-5-benzofuranamine] here?
**A.** The IC50 was 260 nM.

**Q.** For `Cc1c(C)c2c(c(C)c1N)CC(C)(CN1CCN(Cc3ccc4c(c3)OCO4)CC1)O2` (centres unmarked) [Example 4, 2,3-Dihydro-2,4,6,7-tetramethyl-2-[[4-[(3,4-methylenedioxyphenyl)methyl]-1-piperazinyl]methyl]-5-benzofuranamine trihydrochloride], which IC50 is on record?
**A.** The IC50 was 280 nM.

**Q.** How did the IC50 turn out when `Cc1c(C)c2c(c(C)c1N)CC(C)(CN1CCC(Cc3ccccc3)CC1)O2` (centres unmarked) [Example 5, 2-[(4-Benzyl-1-piperidinyl)methyl]-2,3-dihydro-2,4,6,7-tetramethyl-5-benzofuranamine] was run?
**A.** The IC50 was 520 nM.

**Q.** For `Cc1c(C)c2c(c(C)c1N)CC(C)(CN1CCN(Cc3ccccc3)CC1)O2` (centres unmarked) [Example 6, 2-[(4-Benzyl-1-piperazinyl)methyl]-2,3-dihydro-2,4,6,7-tetramethyl-5-benzofuranamine trihydrochloride], which IC50 is on record?
**A.** Its IC50 is 790 nM.

**Q.** For `Cc1c(C)c2c(c(C)c1N)CC(C)(CN1CCC(OC(c3ccccc3)c3ccccc3)CC1)O2` (centres unmarked) [Example 17, 2-[[4-(Diphenylmethoxy)-1-piperidinyl]methyl]-2,3-dihydro-2,4,6,7-tetramethyl-5-benzofuranamine oxalate], which IC50 is on record?
**A.** Its IC50 is 320 nM.

**Q.** With `Cc1c(C)c2c(c(C)c1N)CC(C)(CN1CCC(COC(c3ccccc3)c3ccccc3)CC1)O2` (centres unmarked) [Example 24, 2-[[4-[(Diphenylmethoxy)methyl]-1-piperidinyl]methyl]-2,3-dihydro-2,4,6,7-tetramethyl-5-benzofuranamine oxalate] as the molecule, how does the IC50 read?
**A.** Its IC50 is 410 nM.

**Q.** Which IC50 does the source give for `Cc1c(C)c2c(c(C)c1N)CC(C)(CN1CCC(CCOC(c3ccccc3)c3ccccc3)CC1)O2` (centres unmarked) [Example 25, 2-[[4-[2-(Diphenylmethoxy)ethyl]-1-piperidinyl]methyl]-2,3-dihydro-2,4,6,7-tetramethyl-5-benzofuranamine oxalate] here?
**A.** Its IC50 is 340 nM.

**Q.** `Cc1c(C)c2c(c(C)c1N)CC(C)(CN1CCC(CCCOC(c3ccccc3)c3ccccc3)CC1)O2` (centres unmarked) [Example 26, 2-[[4-[3-(Diphenylmethoxy)propyl]-1-piperidinyl]methyl]-2,3-dihydro-2,4,6,7-tetramethyl-5-benzofuranamine oxalate] was tested. Which IC50 did it give?
**A.** Its IC50 is 220 nM.

**Q.** `Cc1c(C)c2c(c(C)c1N)CC(C)(CN1CCN(CCc3ccccc3)CC1)O2` (centres unmarked) [Example 27, 2,3-Dihydro-2,4,6,7-tetramethyl-2-[[4-(2-phenylethyl)-1-piperazinyl]methyl]-5-benzofuranamine] was tested. Which IC50 did it give?
**A.** The IC50 was 200 nM.

**Q.** `Cc1c(C)c2c(c(C)c1N)CC(C)(CN1CCC(OC(c3ccc(F)cc3)c3ccc(F)cc3)CC1)O2` (centres unmarked) [Example 28, 2-[[4-[Bis(4-fluorophenyl)methoxy]-1-piperidinyl]methyl]-2,3-dihydro-2,4,6,7-tetramethyl-5-benzofuranamine oxalate] was tested. Which IC50 did it give?
**A.** Its IC50 is 220 nM.

**Q.** For `COc1ccc(CN2CCN(CC3(C)Cc4c(C)c(N)c(C)c(C)c4O3)CC2)cc1` (centres unmarked) [Example 29, 2,3-Dihydro-2-[[4-(4-methoxybenzyl)-1-piperazinyl]methyl]-2,4,6,7-tetramethyl-5-benzofuranamine trihydrochloride], which IC50 is on record?
**A.** The IC50 was 210 nM.

**Q.** How did the IC50 turn out when `COc1cccc(CN2CCN(CC3(C)Cc4c(C)c(N)c(C)c(C)c4O3)CC2)c1` (centres unmarked) [Example 30, 2,3-Dihydro-2-[[4-(3-methoxybenzyl)-1-piperazinyl]methyl]-2,4,6,7-tetramethyl-5-benzofuranamine trihydrochloride] was run?
**A.** Its IC50 is 390 nM.

**Q.** With `COc1ccccc1CN1CCN(CC2(C)Cc3c(C)c(N)c(C)c(C)c3O2)CC1` (centres unmarked) [Example 31, 2,3-Dihydro-2-[[4-(2-methoxybenzyl)-1-piperazinyl]methyl]-2,4,6,7-tetramethyl-5-benzofuranamine trihydrochloride] as the molecule, how does the IC50 read?
**A.** Its IC50 is 490 nM.

**Q.** Which IC50 does the source give for `COc1ccc(CN2CCN(CC3(C)Cc4c(C)c(N)c(C)c(C)c4O3)CC2)cc1OC` (centres unmarked) [Example 32, 2-[[4-(3,4-Dimethoxybenzyl)-1-piperazinyl]methyl]-2,3-dihydro-2,4,6,7-tetramethyl-5-benzofuranamine trihydrochloride] here?
**A.** The IC50 was 250 nM.

**Q.** For `Cc1c(C)c2c(c(C)c1N)CC(C)(CN1CCN(Cc3ccc(Cl)cc3)CC1)O2` (centres unmarked) [Example 33, 2-[[4-(4-Chlorobenzyl)-1-piperazinyl]methyl]-2,3-dihydro-2,4,6,7-tetramethyl-5-benzofuranamine trihydrochloride], which IC50 is on record?
**A.** Its IC50 is 310 nM.

**Q.** For `Cc1ccc(CN2CCN(CC3(C)Cc4c(C)c(N)c(C)c(C)c4O3)CC2)cc1` (centres unmarked) [Example 34, 2,3-Dihydro-2,4,6,7-tetramethyl-2-[[4-(4-methylbenzyl)-1-piperazinyl]methyl]-5-benzofuranamine trihydrochloride], which IC50 is on record?
**A.** The IC50 was 420 nM.

**Q.** `Cc1c(C)c2c(c(C)c1N)CC(C)(CN1CCC(NC(c3ccccc3)c3ccccc3)CC1)O2` (centres unmarked) [Example 40, 1-[(5-Amino-2,3-dihydro-2,4,6,7-tetramethylbenzofuran-2-yl)methyl]-N-(diphenylmethyl)-4-piperidinamine trihydrochloride] was tested. Which IC50 did it give?
**A.** The IC50 was 160 nM.

**Q.** For `Cc1c(C)c2c(c(C)c1N)CC(C)(CN1CCC(CCNC(c3ccccc3)c3ccccc3)CC1)O2` (centres unmarked) [Example 41, 1[(5-Amino-2,3-dihydro-2,4,6,7-tetramethylbenzofuran-2-yl)methyl]-N-(diphenylmethyl)-4-piperidineethylamine trihydrochloride], which IC50 is on record?
**A.** Its IC50 is 140 nM.

**Q.** `Cc1c(C)c2c(c(C)c1N)CC(C)(CN1CCC(CCNCCC(c3ccccc3)c3ccccc3)CC1)O2` (centres unmarked) [Example 42, 1-[(5-Amino-2,3-dihydro-2,4,6,7-tetramethylbenzofuran-2-yl)methyl]-N-(3,3-diphenylpropyl)-4-piperidineethylamine trihydrochloride] was tested. Which IC50 did it give?
**A.** Its IC50 is 160 nM.

**Q.** `CCNc1c(C)c(C)c2c(c1C)CC(C)(CN1CCC(c3ccccc3)CC1)O2` (centres unmarked) [Reference Example 8, N-ethyl-2,3-dihydro-2,4,6,7-tetramethyl-2-[(4-phenyl-1-piperidinyl)methyl]-5-benzofuranamine] was tested. Which IC50 did it give?
**A.** The IC50 was 640 nM.

**Q.** `Cc1c(C)c2c(c(C)c1N)CC(C)(CN1CCc3ccccc3CC1)O2` (centres unmarked) [Reference Example 10, 2,3-Dihydro-2,4,6,7-tetramethyl-2-[(2,3,4,5-tetrahydro-1H-3-benzazepin-3-yl)methyl]-5-benzofuranamine dihydrochloride] was tested. Which IC50 did it give?
**A.** The IC50 was 470 nM.
